The target in assay [1] is T1, MOR–Rluc8 and Gαi1β1γ2–GFP2 (Homo sapiens, UniProt P35372+P63096). The assay is classed as cell-based. The conditions noted are these: MOR in the apo state, mean ± s.d.
Assay [2] deals with T1, MOR–Rluc8 and Gαi1β1γ2–GFP2. Format: cell-based.

Like-named read-outs stand apart in the source and are kept apart here.

T1 sequence (P63096 2-354 limits assumed): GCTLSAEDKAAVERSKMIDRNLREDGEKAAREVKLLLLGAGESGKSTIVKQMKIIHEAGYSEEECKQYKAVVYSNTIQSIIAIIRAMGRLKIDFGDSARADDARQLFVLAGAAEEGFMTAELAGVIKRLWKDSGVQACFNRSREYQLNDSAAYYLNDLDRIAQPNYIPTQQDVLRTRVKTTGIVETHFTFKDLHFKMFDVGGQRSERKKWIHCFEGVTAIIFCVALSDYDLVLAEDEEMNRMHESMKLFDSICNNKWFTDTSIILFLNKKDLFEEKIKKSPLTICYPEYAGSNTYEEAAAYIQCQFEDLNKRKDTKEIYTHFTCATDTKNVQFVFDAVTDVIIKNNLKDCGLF
T1 sequence (P35372 whole entry): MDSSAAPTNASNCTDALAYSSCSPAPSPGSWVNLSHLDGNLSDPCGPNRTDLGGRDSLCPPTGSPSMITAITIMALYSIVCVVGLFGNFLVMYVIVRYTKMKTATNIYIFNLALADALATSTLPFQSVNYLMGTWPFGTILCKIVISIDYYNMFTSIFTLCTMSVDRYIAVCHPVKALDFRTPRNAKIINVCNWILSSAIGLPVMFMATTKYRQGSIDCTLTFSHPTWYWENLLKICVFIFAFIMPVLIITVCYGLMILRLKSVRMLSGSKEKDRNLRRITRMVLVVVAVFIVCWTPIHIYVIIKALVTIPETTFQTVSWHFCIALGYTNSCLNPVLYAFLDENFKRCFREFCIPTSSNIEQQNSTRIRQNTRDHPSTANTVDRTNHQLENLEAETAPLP
T1 sequence (P62873 2-340 partner limits assumed): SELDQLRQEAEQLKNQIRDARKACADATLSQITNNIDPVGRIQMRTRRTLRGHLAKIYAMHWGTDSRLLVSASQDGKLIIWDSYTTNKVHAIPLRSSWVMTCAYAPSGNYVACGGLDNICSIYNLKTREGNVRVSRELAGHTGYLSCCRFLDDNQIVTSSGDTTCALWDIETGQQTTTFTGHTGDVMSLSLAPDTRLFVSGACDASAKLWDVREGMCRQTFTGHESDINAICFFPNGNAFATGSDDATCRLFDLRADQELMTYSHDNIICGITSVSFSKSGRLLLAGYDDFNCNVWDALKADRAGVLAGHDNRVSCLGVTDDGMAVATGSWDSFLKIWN
T1 sequence (P59768 2-68 partner limits assumed): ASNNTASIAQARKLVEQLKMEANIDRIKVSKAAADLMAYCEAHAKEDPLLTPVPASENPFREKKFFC

On to `Nc1nc2c(ncn2[C@@H]2O[C@H](COP(=O)(O)OP(O)(O)=S)[C@@H](O)[C@H]2O)c(=O)[nH]1` [GDPβS], for which, in assay [1] (read-out: GDPβS EC50), the EC50 is 57 ± 14 nM.

For the compound `C[C@H]1CN(C[C@H](Cc2ccccc2)C(=O)NCC(=O)O)CC[C@@]1(C)c1cccc(O)c1` [Alvimopan], the signal changes entry in assay [2] is listed as “too small to interpret”. `Nc1nc2c(ncn2[C@@H]2O[C@H](COP(=O)(O)OP(=O)(O)OP(O)(O)=S)[C@@H](O)[C@H]2O)c(=O)[nH]1` [GTPγS]: the 50% effective concentration (EC50) in assay [1] (read-out: GTPγS EC50) was 3.8 ± 0.18 nM.

A word on the EC50: it is the concentration at which the effect is half-maximal.

These data come from publication PMC12711574 (Nature, 2025).
